Consider 3 compounds from the supplement of paper PMC10981050.

Assay in all cases: cell viability relative to vehicle control; higher = less cytotoxic
One experiment concerns OCI-AML2. To be noted: SRSF2 genotype: SRSF2 WT. The protocol:
(§1)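 Isogenic SRSF2 WT and CRISPR SRSF2 P95 mutant clones of MOLM14, OCI-AML2 and MARIMO were exposed to ROCK inhibitors at 7 doses (0.037 to 29.9 µM) for 48 h. Viability was read by CellTiter-Glo luminescence and normalised to the vehicle control on each plate (%).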

The next experiment relates to MARIMO. The settings on record: SRSF2 genotype: SRSF2 WT. As to the method:
as §1

The next experiment relates to MOLM14. As to the method:
as §1

Setting [1] is: 0.037 µM, SRSF2 genotype: SRSF2 WT.
Where [2] appears, read: 0.129 µM, SRSF2 genotype: SRSF2 WT.
The mark [3] stands for this setting: 0.369 µM, SRSF2 genotype: SRSF2 WT.
The mark [4] stands for this setting: 0.997 µM, SRSF2 genotype: SRSF2 WT.
Where [5] appears, read: 3.49 µM, SRSF2 genotype: SRSF2 WT.
[6] abbreviates: 9.97 µM, SRSF2 genotype: SRSF2 WT.
Setting [7] is: 29.9 µM, SRSF2 genotype: SRSF2 WT.

“And” between values parts separate entries of the source, which are not always exact repeats. Identical values can stand only once. ± gives the standard deviation of the averaged measurements.

A word on the cell viability: it is a read-out of living cells in per cent, often relative to untreated cells.

On to `CC1=C(C(=O)Nc2cc3cn[nH]c3cc2F)C(c2ccc(C(F)(F)F)cc2)CC(=O)N1` (stereo not given), for which the cell viability in the experiment on OCI-AML2 (0.037 µM) is 107 ± 1.6%; in the experiment with OCI-AML2 (0.129 µM), 101 ± 5%; with OCI-AML2 (0.369 µM) it was 96.9 ± 7.2%; in the experiment with OCI-AML2 (0.997 µM), 93.11 ± 0.21%; in the experiment on OCI-AML2 (3.49 µM) it was 68 ± 7.8%; in the experiment on OCI-AML2 (9.97 µM), 43.5 ± 9.3%. Besides, the cell viability was 39.4 ± 6% in the experiment on OCI-AML2 (29.9 µM); 103 ± 1.2% with MARIMO (0.037 µM); 100.4 ± 0.44% with MARIMO (0.129 µM); 96 ± 7.2% in the experiment on MARIMO (0.369 µM); 103 ± 5.5% with MARIMO (0.997 µM); 98.9 ± 4.7% in the experiment on MARIMO (3.49 µM). Moreover, the cell viability in the experiment with MARIMO (9.97 µM) is 92.2 ± 11%; with MARIMO (29.9 µM), 95 ± 8.2%; in the experiment with MOLM14 (0.037 µM, SRSF2 genotype: SRSF2 P95 mutant), 112% and 102% and 97.1%; with MOLM14 (setting [1]) it was 94 ± 18%; in the experiment on MOLM14 (0.129 µM, SRSF2 genotype: SRSF2 P95 mutant), 107% and 105% and 103%; in the experiment with MOLM14 (setting [2]), 96.4 ± 9.5%. Also, the cell viability in the experiment on MOLM14 (setting [3]) is 90.1 ± 19%; in the experiment with MOLM14 (setting [4]), 82.5 ± 16%; in the experiment with MOLM14 (setting [5]) it was 66.2 ± 16%; in the experiment on MOLM14 (setting [6]) it was 60.3 ± 14%; in the experiment on MOLM14 (setting [7]), 53 ± 13%.

Turning to `C[C@@H](N)c1ccc(C(=O)Nc2ccnc3[nH]ccc23)cc1`, the cell viability turned out to be 104 ± 7.8% in the experiment with OCI-AML2 (0.037 µM); 99.9 ± 1% with OCI-AML2 (0.129 µM); 93.2 ± 4.4% with OCI-AML2 (0.369 µM); 85 ± 1.9% in the experiment with OCI-AML2 (0.997 µM); 52 ± 2% in the experiment with OCI-AML2 (3.49 µM); 30.4 ± 4.6% in the experiment with OCI-AML2 (9.97 µM). Also, the cell viability in the experiment on OCI-AML2 (29.9 µM) worked out at 7.89 ± 0.6%; in the experiment with MARIMO (0.037 µM), 99.5 ± 4.6%; with MARIMO (0.129 µM) it was 101 ± 3.1%; with MARIMO (0.369 µM), 96.2 ± 1.6%; with MARIMO (0.997 µM) it was 101 ± 1.3%; in the experiment on MARIMO (3.49 µM), 93.99 ± 0.9%. For the same compound, the cell viability stood at 84.1 ± 7.2% with MARIMO (9.97 µM); 35.1 ± 0.58% in the experiment on MARIMO (29.9 µM); 90.1 ± 21% in the experiment with MOLM14 (setting [1]); 94 ± 13% in the experiment with MOLM14 (setting [2]); 87.1 ± 18% in the experiment with MOLM14 (setting [3]); 81.4 ± 17% with MOLM14 (setting [4]). The cell viability came to 51.8 ± 14% in the experiment on MOLM14 (setting [5]), 29.4 ± 7.5% with MOLM14 (setting [6]) and 7.13 ± 1.6% with MOLM14 (setting [7]).

As to `CC1=C(C(=O)Nc2ccc3[nH]ncc3c2)C(c2ccc(F)cc2)NC(=O)N1` (stereo not given), the cell viability is 110 ± 6.1% in the experiment on OCI-AML2 (0.037 µM); 103 ± 7.4% with OCI-AML2 (0.129 µM); 102 ± 4.6% with OCI-AML2 (0.369 µM); 101 ± 6.8% in the experiment with OCI-AML2 (0.997 µM); 78.3 ± 5.9% in the experiment on OCI-AML2 (3.49 µM); 48.1 ± 6.7% in the experiment with OCI-AML2 (9.97 µM). Further, the cell viability stood at 39 ± 4.3% in the experiment on OCI-AML2 (29.9 µM); 102.6 ± 0.94% in the experiment on MARIMO (0.037 µM); 102 ± 2.7% in the experiment on MARIMO (0.129 µM); 100 ± 2.2% in the experiment with MARIMO (0.369 µM); 101 ± 4.8% in the experiment on MARIMO (0.997 µM); 96.1 ± 2.5% with MARIMO (3.49 µM). The cell viability in the experiment on MARIMO (9.97 µM) came to 97.6 ± 13%; in the experiment on MARIMO (29.9 µM) it was 99.8 ± 5.5%; in the experiment on MOLM14 (setting [1]), 96.5 ± 12%; in the experiment on MOLM14 (setting [2]), 96.7 ± 4.2%; in the experiment on MOLM14 (setting [3]), 102 ± 14%; with MOLM14 (setting [4]), 95.8 ± 12%. For the same compound, the cell viability came out at 78.3 ± 14% in the experiment with MOLM14 (setting [5]), 66.3 ± 14% with MOLM14 (setting [6]) and 54.9 ± 10% in the experiment with MOLM14 (setting [7]).
